{"source": "patent US20240415789A1", "about": "“CYCLOBENZAPRINE FOR TREATMENT OR PREVENTION OF SEXUAL DYSFUNCTION ASSOCIATED WITH MENTAL HEALTH CONDITIONS IN FEMALE PATIENTS” (Tonix Pharmaceuticals Holding Corp., priority 2021, published 2024)", "key": {"[1]": {"system": "female sexual functioning in females with predominantly civilian PTSD", "conditions": "civilian Phase 3, female completers 5.6 mg (N=58) vs placebo (N=55), 12 weeks", "protocol": "(§1) Three randomized, placebo-controlled and double-blind clinical trials of the above described 5.6 mg cyclobenzaprine HCl sublingual formulation (2×2.8 mg tablets) were performed, a Phase 2 study and a Phase 3 study in military-related PTSD, and a Phase 3 study in predominantly civilian PTSD. […] The present retrospective analysis examined the activity of the cyclobenzaprine HCl sublingual formulation on the Changes in Sexual Functioning Questionnaire short form (CSFQ-14) in the two Phase 3 studies.\n(§2) In the Phase 3 study in predominantly civilian PTSD, the inclusion criteria were broadened to include civilian participants with current PTSD, as determined by the CAPS-5. Accordingly, this study included 94% civilian trauma with a minimum baseline severity score of ≥33 on the CAPS-5. […] Thus, analyses were conducted on the interim analysis sample of 252 participants in the military Phase 3 study (89% male [n=225 M; n=27 F]; 100% military PTSD) and […] subjects in the civilian Phase 3 study (79% female [n=129 F; n=34 M]; 94% civilian PTSD).\n(§3) The CSFQ-14 is a validated 14-item measure (Keller, McGarvey, Clayton, 2006) that has male and female versions which were analyzed separately. In addition to a total sexual functioning score, there are five sub-scales: desire/frequency, desire/interest, arousal/excitement, orgasm/complete, and pleasure. The items range on 5-point Likert scale from (never) to (every day). Higher scores reflect greater levels of sexual functioning."}, "[2]": {"system": "female sexual functioning in females with military-related PTSD", "conditions": "military Phase 3, females 5.6 mg (N=8) vs placebo (N=16), 12 weeks", "protocol": "(§4) Methods: In this 12-week, multicenter, adaptive design, randomized controlled fixed-dose trial, 5.6 mg cyclobenzaprine HCl (2×2.8 mg sublingual tablets, comprising a 75%±2% cyclobenzaprine HCl and 25%±2% mannitol eutectic and a potassium phosphate dibasic anhydrous basifying agent) taken daily at bedtime was compared to placebo for the treatment of PTSD at 45 U.S. sites. […] A pre-planned interim analysis was conducted when about half the originally planned sample of 550 participants had outcome data.\n(§5) The modified intention-to-treat (mITT) population, which included all randomized subjects with at least one post-baseline CAPS-5, included 125 participants treated with 5.6 mg dose per day the above cyclobenzaprine HCl sublingual formulation and 127 participants on placebo were studied.\nSexual functioning was measured by Changes in Sexual Functioning Questionnaire short-form (CSFQ-14) which is a validated 14-item measure (Keller, McGarvey, Clayton, 2006). Parallel gender-specific versions are administered to males (CSFQ-14-M) and females (CSFQ-14-F), and each sex was analyzed separately. In addition to a total sexual functioning score, there are five sub-scales: desire/frequency, desire/interest, arousal/excitement, orgasm/complete, and pleasure. The scales range from (never) to (every day) and higher scores reflect greater levels of sexual functioning.\nas §2, §3"}, "[3]": {"conditions": "both Phase 3 studies", "protocol": "as §1, §2"}, "[4]": {"system": "military-related PTSD", "conditions": "female subgroup (10 active, 17 placebo), 5.6 mg per day sublingual, after 12 weeks of treatment", "protocol": "as §4, §5"}, "[5]": {"protocol": "as §4, §5"}, "[6]": {"system": "PTSD", "conditions": "all three trials (Phase 2, two Phase 3), 5.6 mg dose", "protocol": "as §1"}, "[7]": {"conditions": "Phase 2 study in military-related PTSD, drug and placebo groups", "protocol": "as §1"}}, "note": "Counter-ions that a name gives are not always drawn. Like-named read-outs stand apart in the source and are kept apart here."}
{"smiles": "CN(C)CCC=C1c2ccccc2C=Cc2ccccc21", "note": "[cyclobenzaprine HCl]", "values": [{"measurement": "CSFQ-14-F arousal/excitement subscale, Hedges' g vs placebo", "setting": "[1]", "result": 0.33}, {"measurement": "CSFQ-14-F desire/frequency subscale, Hedges' g vs placebo", "setting": "[1]", "result": 0.21}, {"measurement": "CSFQ-14-F desire/interest subscale, Hedges' g vs placebo", "setting": "[1]", "result": 0.23}, {"measurement": "CSFQ-14-F orgasm/completion subscale, Hedges' g vs placebo", "setting": "[1]", "result": 0.29}, {"measurement": "CSFQ-14-F pleasure subscale, Hedges' g vs placebo", "setting": "[1]", "result": 0.19}, {"measurement": "CSFQ-14-F total score, Hedges' g effect size vs placebo", "setting": "[1]; p=0.07", "result": 0.37}, {"measurement": "CSFQ-14-F arousal/excitement subscale, Hedges' g vs placebo", "setting": "[2]", "result": 0.55}, {"measurement": "CSFQ-14-F desire/frequency subscale, Hedges' g vs placebo", "setting": "[2]", "result": 0.46}, {"measurement": "CSFQ-14-F desire/interest subscale, Hedges' g vs placebo", "setting": "[2]", "result": 0.63}, {"measurement": "CSFQ-14-F orgasm/completion scale, effect vs placebo", "setting": "[2]", "result": "No effect"}, {"measurement": "CSFQ-14-F pleasure subscale, Hedges' g vs placebo", "setting": "[2]", "result": 0.54}, {"measurement": "CSFQ-14-F total score, Hedges' g effect size vs placebo", "setting": "[2]", "result": 0.49}, {"measurement": "severity of oral hypoaesthesia", "setting": "[3]", "result": "never rated as severe"}, {"measurement": "most frequent adverse event", "setting": "[3]; 5.6 mg sublingual", "result": "oral hypoaesthesia"}, {"measurement": "duration of oral hypoaesthesia post administration", "setting": "[3]; generally transient", "result": "< 60", "unit": "min"}, {"measurement": "most common systemic adverse event", "setting": "[3]; also never rated as severe", "result": "somnolence"}, {"measurement": "observed mean improvement in CAPS-5 over placebo", "setting": "[4]", "result": "−9.1", "unit": "units"}, {"measurement": "severity of oral hypoaesthesia", "setting": "[5]; military Phase 3", "result": "never rated as severe"}, {"measurement": "participants with at least one AE leading to study discontinuation", "setting": "[5]; military Phase 3, 5.6 mg dose (placebo: two)", "result": 8, "unit": "participants"}, {"measurement": "most frequent adverse event", "setting": "[5]; military Phase 3, 5.6 mg sublingual daily at bedtime", "result": "oral hypoaesthesia"}, {"measurement": "duration of oral hypoaesthesia post administration", "setting": "[5]; military Phase 3, generally transient", "result": "< 60", "unit": "min"}, {"measurement": "most common systemic adverse event", "setting": "[5]; military Phase 3, also never rated as severe", "result": "somnolence"}, {"measurement": "activity on clinician- and patient-rated global PTSD symptoms (CGI and PGIC)", "setting": "[6]", "result": "encouraging activity"}, {"measurement": "rates of adverse events related to sexual function", "setting": "[7]", "result": "very low rates"}]}
